Results reported in article PMC10348020, “Carbonic anhydrase inhibitory activity of phthalimide-capped benzene sulphonamide derivatives” (Journal of Enzyme Inhibition and Medicinal Chemistry, 2023).
Entries after “also recorded” stand apart in the source; their conditions may differ.

How the values were obtained:
hCA II = biological target: T1, hCA II (Homo sapiens, UniProt P00918); test: stopped-flow CO2 hydrase assay, hCA II; assay type: biochemical; settings: for Ki: stopped-flow CO2 hydrase assay, mean from three different assays, errors ± 5–10%; for hCA II inhibition (in words): stopped-flow assay
T1 construct: hCA isoenzymes I and II used in these experiments were obtained, as earlier reported by our groups
Description: (§1) The CA isoenzyme assay was performed using a stopped-flow Applied Photophysics (SX.18V-R; Oxford, UK) instrument using Khalifah’s technique. hCA isoenzymes I and II used in these experiments were obtained, as earlier reported by our groups.

hCA I = biological target: T2, hCA I (Homo sapiens, UniProt P00915); test: stopped-flow CO2 hydrase assay, hCA I; assay type: biochemical; settings: for Ki: stopped-flow CO2 hydrase assay, mean from three different assays, errors ± 5–10%; for hCA I inhibition (in words): stopped-flow assay
T2 construct: hCA isoenzymes I and II used in these experiments were obtained, as earlier reported by our groups
T2 sequence (P00915 whole entry): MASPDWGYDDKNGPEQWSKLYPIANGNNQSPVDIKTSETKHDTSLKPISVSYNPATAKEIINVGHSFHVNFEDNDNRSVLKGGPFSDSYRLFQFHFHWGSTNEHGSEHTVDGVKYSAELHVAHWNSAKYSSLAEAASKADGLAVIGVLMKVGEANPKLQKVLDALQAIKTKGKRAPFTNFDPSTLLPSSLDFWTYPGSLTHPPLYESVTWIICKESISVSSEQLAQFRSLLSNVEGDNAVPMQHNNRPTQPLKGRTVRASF
Description: as §1

dengue viral protease = test system: dengue viral protease; parameters: method as in PMID 26247308; settings: previously reported by the group; cited from earlier work

SMILES | Ki (hCA II) | hCA II inhibition (in words) (hCA II) | Ki (hCA I) | hCA I inhibition (in words) (hCA I) | dengue viral protease inhibition (in words) (dengue viral protease)
CN(C)S(=O)(=O)c1ccc(N2C(=O)c3ccccc3C2=O)cc1 [Compound 4] | 9.06 µM | showed hCA II inhibition at nanomolar concentrations; also recorded: inhibited hCA II | > 10 µM |  | 
O=C1c2ccccc2C(=O)N1c1ccc(S(=O)(=O)Nc2ccccc2Cl)cc1 [Compound 13] | > 10 µM |  | > 10 µM |  | 
CN1CCN(S(=O)(=O)c2ccc(N3C(=O)c4ccccc4C3=O)cc2)CC1 [Compound 8] | > 10 µM |  | > 10 µM |  | 
O=C(O)c1ccc(NS(=O)(=O)c2ccc(N3C(=O)c4ccccc4C3=O)cc2)cc1 [Compound 22] | > 10 µM |  | > 10 µM |  | 
O=C1c2ccccc2C(=O)N1c1ccc(S(=O)(=O)Nc2cccc(Cl)c2)cc1 [Compound 14] | > 10 µM |  | > 10 µM |  | 
CC(C)NS(=O)(=O)c1ccc(N2C(=O)c3ccccc3C2=O)cc1 [Compound 2] | > 10 µM |  | > 10 µM |  | 
COc1ccc(NS(=O)(=O)c2ccc(N3C(=O)c4ccccc4C3=O)cc2)cc1 [Compound 12] | > 10 µM |  | > 10 µM |  | 
CCN(CC)S(=O)(=O)c1ccc(N2C(=O)c3ccccc3C2=O)cc1 [Compound 5] | > 10 µM |  | > 10 µM |  | 
O=C1c2ccccc2C(=O)N1c1ccc(S(=O)(=O)N(c2ccccc2)c2ccccc2)cc1 [Compound 6] | > 10 µM |  | > 10 µM |  | 
O=C1c2ccccc2C(=O)N1c1ccc(S(=O)(=O)N2CCCCC2)cc1 [Compound 7] | > 10 µM |  | > 10 µM |  | 
O=C1c2ccccc2C(=O)N1c1ccc(S(=O)(=O)Nc2ccc([N+](=O)[O-])cc2)cc1 [Compound 21] | > 10 µM |  | > 10 µM |  | 
O=C1c2ccccc2C(=O)N1c1ccc(S(=O)(=O)Nc2cccc([N+](=O)[O-])c2)cc1 [Compound 20] | > 10 µM |  | > 10 µM |  | 
COc1cccc(NS(=O)(=O)c2ccc(N3C(=O)c4ccccc4C3=O)cc2)c1 [Compound 11] | > 10 µM |  | > 10 µM |  | 
Cc1ccccc1NS(=O)(=O)c1ccc(N2C(=O)c3ccccc3C2=O)cc1 [Compound 16] | > 10 µM |  | > 10 µM |  | 
Cc1ccc(NS(=O)(=O)c2ccc(N3C(=O)c4ccccc4C3=O)cc2)cc1 [Compound 18] | > 10 µM |  | > 10 µM |  | 
O=C1c2ccccc2C(=O)N1c1ccc(S(=O)(=O)Nc2ccccc2)cc1 [Compound 9] | > 10 µM |  | > 10 µM |  | 
O=C1c2ccccc2C(=O)N1c1ccc(S(=O)(=O)Nc2ccccc2O)cc1 [Compound 10] | 8.87 µM | showed hCA II inhibition at nanomolar concentrations; also recorded: inhibited hCA II | 5.52 µM | showed hCA I inhibition; also recorded: inhibited hCA I | 
NS(=O)(=O)c1ccc(N2C(=O)c3ccccc3C2=O)cc1 [Compound 1] |  |  |  |  | inactive
O=C1c2ccccc2C(=O)N1c1ccc(S(=O)(=O)Nc2ccc(Cl)cc2)cc1 [Compound 15] | > 10 µM |  | 7.5 µM | showed hCA I inhibition; also recorded: inhibited hCA I | 
O=C1c2ccccc2C(=O)N1c1ccc(S(=O)(=O)NCCc2ccccc2)cc1 [Compound 3] |  |  | 7.35 µM | showed hCA I inhibition; also recorded: inhibited hCA I | 
Cc1cccc(NS(=O)(=O)c2ccc(N3C(=O)c4ccccc4C3=O)cc2)c1 [Compound 17] | > 10 µM |  | > 10 µM |  | 
CCc1ccc(NS(=O)(=O)c2ccc(N3C(=O)c4ccccc4C3=O)cc2)cc1 [Compound 19] | > 10 µM | inactive | > 10 µM | inactive | potent dengue protease inhibitor
